“And” between values parts separate entries of the source, which are not always exact repeats. Equal values may be shown once. Inconclusive results and toxic doses are left out.
Tested on: CD2F1 mice, L1210 leukemia ip, survival T/C
Assay: NCI In Vivo Anticancer Drug Screen. Data for tumor model L1210 Leukemia (intraperitoneal) in CD2F1 (CDF1) mice
Details: higher = longer survival
Summary of the method: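 Compound-dosed mice with transplantable tumor versus matched vehicle controls; endpoint ratio T/C reported.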

[1] = endpoint: mean survival time, dose: 100.0 mg/kg/injection, schedule: Q04DX003 (ip), vehicle: saline
[2] = endpoint: mean survival time, dose: 200.0 mg/kg/injection, schedule: Q04DX003 (ip), vehicle: saline
[3] = endpoint: mean survival time, dose: 400.0 mg/kg/injection, schedule: Q04DX003 (ip), vehicle: saline
[4] = endpoint: mean survival time, dose: 100.0 mg/kg/injection, schedule: Q04DX002 (ip), vehicle: saline
[5] = endpoint: mean survival time, dose: 200.0 mg/kg/injection, schedule: Q04DX002 (ip), vehicle: saline
[6] = endpoint: mean survival time, dose: 100.0 mg/kg/injection, schedule: Q04DX003 (ip), vehicle: saline with Tween-80
[7] = endpoint: mean survival time, dose: 100.0 mg/kg/injection, schedule: Q01DX001 (ip), vehicle: saline with Tween-80
[8] = endpoint: mean survival time, dose: 100.0 mg/kg/injection, schedule: Q01DX009 (ip), vehicle: saline with Tween-80
[9] = endpoint: mean survival time, dose: 200.0 mg/kg/injection, schedule: Q01DX009 (ip), vehicle: saline with Tween-80
[10] = endpoint: mean survival time, dose: 400.0 mg/kg/injection, schedule: Q01DX009 (ip), vehicle: saline with Tween-80
[11] = endpoint: mean survival time, dose: 200.0 mg/kg/injection, schedule: Q01DX001 (ip), vehicle: saline with Tween-80
[12] = endpoint: mean survival time, dose: 200.0 mg/kg/injection, schedule: Q04DX003 (ip), vehicle: saline with Tween-80
[13] = endpoint: mean survival time, dose: 400.0 mg/kg/injection, schedule: Q01DX001 (ip), vehicle: saline with Tween-80
[14] = endpoint: mean survival time, dose: 400.0 mg/kg/injection, schedule: Q04DX003 (ip), vehicle: saline with Tween-80
[15] = endpoint: mean survival time, dose: 50.0 mg/kg/injection, schedule: Q01DX009 (ip), vehicle: saline with Tween-80

Compound: COC1C(O)C(O)C(O)C(O)C1O (stereo unspecified)
- T/C [1]: 95 % of control
- T/C [2]: 92 % of control
- T/C [3]: 93 % of control

Compound: Cc1cccc(CN=C(N)CCl)n1
- T/C [4]: 111 % of control
- T/C [5]: 116 % of control

Compound: O=c1n(-c2ccccc2)c(=O)n(-c2ccccc2)c(=O)n1-c1ccccc1
- T/C (endpoint: mean survival time, dose: 100.0 mg/kg/injection, schedule: Q01DX001 (ip), vehicle: Klucel (hydroxypropylcellulose) (HPC)): 93 % of control
- T/C (endpoint: mean survival time, dose: 200.0 mg/kg/injection, schedule: Q01DX001 (ip), vehicle: Klucel (hydroxypropylcellulose) (HPC)): 90 % of control
- T/C (endpoint: mean survival time, dose: 400.0 mg/kg/injection, schedule: Q01DX001 (ip), vehicle: Klucel (hydroxypropylcellulose) (HPC)): 101 % of control

Compound: Cc1ccc(S(=O)(=O)/C=C/c2ccccc2)cc1
- T/C (endpoint: mean survival time, dose: 100.0 mg/kg/injection, schedule: Q01DX001 (ip), vehicle: saline): 103 % of control
- T/C [1]: 96 % of control
- T/C (endpoint: mean survival time, dose: 200.0 mg/kg/injection, schedule: Q01DX001 (ip), vehicle: saline): 108 % of control
- T/C [2]: 93 % of control
- T/C (endpoint: mean survival time, dose: 400.0 mg/kg/injection, schedule: Q01DX001 (ip), vehicle: saline): 100 % of control
- T/C [3]: 87 % of control

Compound: O=C1C2CCCC1C1/C(=[N+](/[O-])O)C=C([N+](=O)[O-])C2C1[N+](=O)[O-] (stereo unspecified)
- T/C (endpoint: mean survival time, dose: 100.0 mg/kg/injection, schedule: Q04DX002 (ip), vehicle: saline with Tween-80): 98 % of control
- T/C (endpoint: mean survival time, dose: 200.0 mg/kg/injection, schedule: Q04DX002 (ip), vehicle: saline with Tween-80): 98 % of control
- T/C (endpoint: mean survival time, dose: 400.0 mg/kg/injection, schedule: Q04DX002 (ip), vehicle: saline with Tween-80): 110 % of control

Compound: NC(=O)CC(N)CO (stereo unspecified)
- T/C (endpoint: mean survival time, dose: 50.0 mg/kg/injection, schedule: Q01DX009 (ip), vehicle: saline): 93 % of control
- T/C (endpoint: mean survival time, dose: 100.0 mg/kg/injection, schedule: Q01DX009 (ip), vehicle: saline): 98 % of control
- T/C (endpoint: mean survival time, dose: 200.0 mg/kg/injection, schedule: Q01DX009 (ip), vehicle: saline): 95 % of control
- T/C (endpoint: mean survival time, dose: 400.0 mg/kg/injection, schedule: Q01DX009 (ip), vehicle: saline): 98 % of control

Compound: N#CC(C#N)=Cc1ccc(Cl)cc1
- T/C (endpoint: mean survival time, dose: 25.0 mg/kg/injection, schedule: Q04DX003 (ip), vehicle: saline with Tween-80): 89 % of control
- T/C (endpoint: mean survival time, dose: 50.0 mg/kg/injection, schedule: Q04DX003 (ip), vehicle: saline with Tween-80): 101 % of control
- T/C [6]: 86 % of control and 98 % of control

Compound: CCCCC(CCC)(CCN)CCCC
- T/C (endpoint: mean survival time, dose: 3.0 mg/kg/injection, schedule: Q01DX009 (ip), vehicle: saline): 106 % of control
- T/C (endpoint: mean survival time, dose: 6.0 mg/kg/injection, schedule: Q01DX009 (ip), vehicle: saline): 98 % of control
- T/C (endpoint: mean survival time, dose: 12.0 mg/kg/injection, schedule: Q01DX009 (ip), vehicle: saline): 104 % of control
- T/C (endpoint: mean survival time, dose: 12.5 mg/kg/injection, schedule: Q04DX003 (ip), vehicle: saline): 103 % of control

Compound: NNc1c(F)ccc(F)c1F
- T/C (endpoint: mean survival time, dose: 25.0 mg/kg/injection, schedule: Q01DX001 (ip), vehicle: saline with Tween-80): 100 % of control
- T/C (endpoint: mean survival time, dose: 50.0 mg/kg/injection, schedule: Q01DX001 (ip), vehicle: saline with Tween-80): 100 % of control
- T/C [7]: 94 % of control

Compound: CCC[CH2][Sn]1([CH2]CCC)[O]CC2OC(n3cc(C)c(=O)[nH]c3=O)CC2[O]1 (stereo unspecified)
- T/C (endpoint: mean survival time, dose: 0.78 mg/kg/injection, schedule: Q01DX005 (ip), vehicle: other): 97 % of control
- T/C (endpoint: mean survival time, dose: 1.56 mg/kg/injection, schedule: Q01DX005 (ip), vehicle: other): 101 % of control
- T/C (endpoint: mean survival time, dose: 3.13 mg/kg/injection, schedule: Q01DX005 (ip), vehicle: other): 106 % of control

Compound: CC(O)CCC(=O)c1ccoc1 (stereo unspecified)
- T/C (endpoint: median survival time, dose: 0.62 mg/kg/injection, schedule: Q03HX015 (ip), vehicle: saline): 109 % of control
- T/C (endpoint: median survival time, dose: 1.25 mg/kg/injection, schedule: Q03HX015 (ip), vehicle: saline): 117 % of control
- T/C (endpoint: median survival time, dose: 2.5 mg/kg/injection, schedule: Q03HX015 (ip), vehicle: saline): 106 % of control
- T/C (endpoint: median survival time, dose: 3.75 mg/kg/injection, schedule: Q03HX015 (ip), vehicle: saline + alcohol): 112 % of control
- T/C (endpoint: median survival time, dose: 5.0 mg/kg/injection, schedule: Q03HX015 (ip), vehicle: saline): 102 % of control
- T/C (endpoint: median survival time, dose: 7.5 mg/kg/injection, schedule: Q03HX015 (ip), vehicle: saline + alcohol): 105 % of control
- T/C (endpoint: median survival time, dose: 10.0 mg/kg/injection, schedule: Q03HX015 (ip), vehicle: saline): 109 % of control

Compound: Cc1[nH]c2ccccc2c1C(C)(Cc1cc2ccccc2[nH]1)c1ccncc1 (stereo unspecified)
- T/C [8]: 91 % of control
- T/C [9]: 100 % of control
- T/C [10]: 91 % of control

Compound: Cc1cc(Br)cnc1Cl
- T/C [7]: 97 % of control
- T/C [6]: 92 % of control
- T/C [11]: 106 % of control
- T/C [12]: 97 % of control
- T/C [13]: 101 % of control
- T/C [14]: 96 % of control

Compound: N#C/C(=C\c1cccc2ccccc12)c1ccccc1
- T/C [8]: 100 % of control
- T/C [6]: 93 % of control
- T/C [9]: 96 % of control
- T/C [12]: 98 % of control
- T/C [10]: 97 % of control
- T/C [14]: 102 % of control

Compound: CC1=CCC2C(=O)NC(=O)C2C1 (stereo unspecified)
- T/C [15]: 96 % of control
- T/C [8]: 104 % of control
- T/C [9]: 104 % of control

Compound: CCOC(=O)N1CCN(c2ccc(Cl)cc2)CC1
- T/C (endpoint: mean survival time, dose: 100.0 mg/kg/injection, schedule: Q04DX003 (ip), vehicle: Klucel (hydroxypropylcellulose) (HPC)): 93 % of control
- T/C (endpoint: mean survival time, dose: 200.0 mg/kg/injection, schedule: Q04DX003 (ip), vehicle: Klucel (hydroxypropylcellulose) (HPC)): 91 % of control

Compound: O=NN(CCCl)C(=O)Oc1cc(Cl)c(Cl)cc1Cl
- T/C (endpoint: median survival time, dose: 6.0 mg/kg/injection, schedule: Q01DX009 (ip), vehicle: Klucel (hydroxypropylcellulose) (HPC)): 106 % of control
- T/C (endpoint: median survival time, dose: 12.0 mg/kg/injection, schedule: Q01DX009 (ip), vehicle: Klucel (hydroxypropylcellulose) (HPC)): 124 % of control
- T/C (endpoint: median survival time, dose: 12.5 mg/kg/injection, schedule: Q01DX009 (ip), vehicle: Klucel (hydroxypropylcellulose) (HPC)): 109 % of control
- T/C (endpoint: median survival time, dose: 50.0 mg/kg/injection, schedule: Q01DX009 (ip), vehicle: Klucel (hydroxypropylcellulose) (HPC)): 195 % of control

Compound: O=C(Sc1cn(C2CC(O)C(CO)O2)c(=O)[nH]c1=O)c1ccc(N(CCCl)CCCl)cc1 (stereo unspecified)
- T/C (endpoint: mean survival time, dose: 12.5 mg/kg/injection, schedule: Q01DX005 (ip), vehicle: water): 117 % of control
- T/C (endpoint: mean survival time, dose: 25.0 mg/kg/injection, schedule: Q01DX005 (ip), vehicle: water): 115 % of control
- T/C (endpoint: mean survival time, dose: 50.0 mg/kg/injection, schedule: Q01DX005 (ip), vehicle: water): 124 % of control
- T/C (endpoint: mean survival time, dose: 66.0 mg/kg/injection, schedule: Q01DX005 (ip), vehicle: water): 119 % of control
- T/C (endpoint: mean survival time, dose: 100.0 mg/kg/injection, schedule: Q01DX005 (ip), vehicle: water): 119 % of control
- T/C (endpoint: mean survival time, dose: 200.0 mg/kg/injection, schedule: Q01DX005 (ip), vehicle: water): 120 % of control

Compound: CC(=O)CCC(=O)OC1CCCCC1
- T/C [6]: 102 % of control
- T/C [12]: 97 % of control
- T/C [14]: 97 % of control

Compound: Cc1ccc(S(=O)(=O)N(O)S(=O)(=O)c2ccc(C)cc2)cc1
- T/C [7]: 101 % of control
- T/C [8]: 94 % of control
- T/C [11]: 94 % of control
- T/C [9]: 92 % of control
- T/C [13]: 100 % of control
- T/C [10]: 94 % of control

Compound: CSc1nc(NC2OC(CO)C(O)C(O)C2O)cc(=O)n1C (stereo unspecified)
- T/C (endpoint: median survival time, dose: 12.5 mg/kg/injection, schedule: Q01DX005 (ip), vehicle: saline): 102 % of control
- T/C (endpoint: median survival time, dose: 25.0 mg/kg/injection, schedule: Q01DX005 (ip), vehicle: saline): 100 % of control
- T/C (endpoint: median survival time, dose: 50.0 mg/kg/injection, schedule: Q01DX005 (ip), vehicle: saline): 102 % of control
- T/C (endpoint: median survival time, dose: 100.0 mg/kg/injection, schedule: Q01DX005 (ip), vehicle: saline): 102 % of control
- T/C (endpoint: median survival time, dose: 200.0 mg/kg/injection, schedule: Q01DX005 (ip), vehicle: saline): 100 % of control

Compound: O=C(O)CCC(O)CC(=O)OCc1ccccc1 (stereo unspecified)
- T/C [4]: 107 % of control
- T/C [5]: 107 % of control
- T/C (endpoint: mean survival time, dose: 400.0 mg/kg/injection, schedule: Q04DX002 (ip), vehicle: saline): 96 % of control

Compound: C1CCC2C3CCC(O3)C2C1 (stereo unspecified)
- T/C (endpoint: mean survival time, dose: 100.0 mg/kg/injection, schedule: Q04DX003 (ip), vehicle: saline sonified): 96 % of control
- T/C (endpoint: mean survival time, dose: 200.0 mg/kg/injection, schedule: Q04DX003 (ip), vehicle: saline sonified): 96 % of control
- T/C (endpoint: mean survival time, dose: 400.0 mg/kg/injection, schedule: Q04DX003 (ip), vehicle: saline sonified): 92 % of control

Compound: CN(C)/N=C/c1cccc(CC(O)(C(F)(F)F)C(F)(F)F)n1
- T/C [15]: 94 % of control
- T/C [7]: 105 % of control
- T/C [8]: 96 % of control
- T/C [11]: 100 % of control
- T/C [9]: 97 % of control

— PubChem BioAssay AID256 (DTP/NCI, 2004)
